Values joined by “and” are separate entries in the source; they are usually repeats but may differ in a detail not shown here. Equal entries are not always repeated. Inconclusive results and toxic doses are left out. Cut-off read from the data, not from the text of the source: active = T/C of 150% or more; inactive = T/C below 125%.
Tested on: L1210 leukemia ip in BDF1 mice, survival T/C
Assay: NCI In Vivo Anticancer Drug Screen. Data for tumor model L1210 Leukemia (intraperitoneal) in B6D2F1 (BDF1) mice
Conditions: endpoint: mean survival time, higher = longer survival
In short: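 Value reflects the ratio of survival in compound-treated mice to survival in vehicle-treated controls, with both groups carrying the same transplanted tumor.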

[1] = dose: 100.0 mg/kg/injection, schedule: Q04DX002 (ip), vehicle: saline with Tween-80
[2] = dose: 200.0 mg/kg/injection, schedule: Q04DX002 (ip), vehicle: saline with Tween-80
[3] = dose: 400.0 mg/kg/injection, schedule: Q04DX002 (ip), vehicle: saline with Tween-80
[4] = dose: 100.0 mg/kg/injection, schedule: Q01DX009 (ip), vehicle: Klucel (hydroxypropylcellulose) (HPC)
[5] = dose: 200.0 mg/kg/injection, schedule: Q01DX009 (ip), vehicle: Klucel (hydroxypropylcellulose) (HPC)
[6] = dose: 100.0 mg/kg/injection, schedule: Q04DX003 (ip), vehicle: saline with Tween-80
[7] = dose: 200.0 mg/kg/injection, schedule: Q04DX003 (ip), vehicle: saline with Tween-80
[8] = dose: 400.0 mg/kg/injection, schedule: Q04DX003 (ip), vehicle: saline with Tween-80
[9] = dose: 100.0 mg/kg/injection, schedule: Q01DX009 (ip), vehicle: saline with Tween-80
[10] = dose: 200.0 mg/kg/injection, schedule: Q01DX009 (ip), vehicle: saline with Tween-80
[11] = dose: 400.0 mg/kg/injection, schedule: Q01DX009 (ip), vehicle: saline with Tween-80
[12] = dose: 100.0 mg/kg/injection, schedule: Q01DX001 (ip), vehicle: carboxymethylcellulose (CMC)
[13] = dose: 200.0 mg/kg/injection, schedule: Q01DX001 (ip), vehicle: carboxymethylcellulose (CMC)
[14] = dose: 400.0 mg/kg/injection, schedule: Q01DX001 (ip), vehicle: carboxymethylcellulose (CMC)
[15] = dose: 100.0 mg/kg/injection, schedule: Q01DX001 (ip), vehicle: saline
[16] = dose: 200.0 mg/kg/injection, schedule: Q01DX001 (ip), vehicle: saline
[17] = dose: 400.0 mg/kg/injection, schedule: Q01DX001 (ip), vehicle: saline
[18] = dose: 100.0 mg/kg/injection, schedule: Q04DX003 (ip), vehicle: Klucel (hydroxypropylcellulose) (HPC)
[19] = dose: 200.0 mg/kg/injection, schedule: Q04DX003 (ip), vehicle: Klucel (hydroxypropylcellulose) (HPC)
[20] = dose: 400.0 mg/kg/injection, schedule: Q04DX003 (ip), vehicle: Klucel (hydroxypropylcellulose) (HPC)

Measured: T/C

Cc1cc(Cl)cc(Cl)c1OCC(=O)Nc1cc(Cl)ccc1Cl
inactive: [1] 90 % of control | [2] 86 % of control | [3] 86 % of control

O=[N+]([O-])c1cccc(/C=N/NC(=S)Nc2ccccc2)c1
inactive: [4] 89 % of control | [5] 93 % of control

CC(NC(=O)OCc1ccccc1)C(=O)NC(Cc1ccc(O)cc1)C(=O)OCc1ccccc1 (stereo not given)
inactive: [6] 97 % of control | [7] 90 % of control | [8] 93 % of control

O=C(Cl)c1cc2ccccc2o1
inactive: [6] 89 % of control | [7] 92 % of control | [8] 95 % of control

O=C(C[P+](c1ccccc1)(c1ccccc1)c1ccccc1)c1ccccc1
inactive: dose: 75.0 mg/kg/injection, schedule: Q01DX001 (ip), vehicle: carboxymethylcellulose (CMC) 92 % of control | dose: 100.0 mg/kg/injection, schedule: Q01DX001 (ip), vehicle: Klucel (hydroxypropylcellulose) (HPC) 97 % of control | dose: 150.0 mg/kg/injection, schedule: Q01DX001 (ip), vehicle: carboxymethylcellulose (CMC) 97 % of control | dose: 300.0 mg/kg/injection, schedule: Q01DX001 (ip), vehicle: carboxymethylcellulose (CMC) 92 % of control

O=C(O)c1cc(Br)c(Cl)c(Br)c1
inactive: dose: 100.0 mg/kg/injection, schedule: Q04DX002 (ip), vehicle: Klucel (hydroxypropylcellulose) (HPC) 100 % of control | dose: 200.0 mg/kg/injection, schedule: Q04DX002 (ip), vehicle: Klucel (hydroxypropylcellulose) (HPC) 100 % of control

CCOc1ccc(/C=N/NC(=O)CC2CCCCC2)cc1OC
inactive: [9] 90 % of control | [10] 88 % of control | [11] 90 % of control

O=C1CCCCC1Nc1ccc(Cl)cc1 (stereo not given)
inactive: [12] 100 % of control | [13] 95 % of control | [14] 95 % of control

CC(C)=CCC(C)c1ccccn1 (stereo not given)
inactive: [15] 100 % of control | [16] 100 % of control | [17] 97 % of control

CCC(C)C(NCc1ccccc1)C(=O)O (stereo not given)
inactive: dose: 100.0 mg/kg/injection, schedule: Q01DX001 (ip), vehicle: acetone 108 % of control | dose: 100.0 mg/kg/injection, schedule: Q04DX003 (ip), vehicle: saline 102 % of control | dose: 200.0 mg/kg/injection, schedule: Q01DX001 (ip), vehicle: acetone 97 % of control | dose: 200.0 mg/kg/injection, schedule: Q04DX003 (ip), vehicle: saline 93 % of control | dose: 400.0 mg/kg/injection, schedule: Q01DX001 (ip), vehicle: acetone 90 % of control | dose: 400.0 mg/kg/injection, schedule: Q04DX003 (ip), vehicle: saline 96 % of control

CS(=O)(=O)OCC(OS(C)(=O)=O)C(COS(C)(=O)=O)OS(C)(=O)=O (stereo not given)
inactive: [9] 91 % of control | [6] 92 % of control | [10] 100 % of control | [7] 96 % of control | [11] 96 % of control | [8] 96 % of control

CCOC(=O)NCC(CCCN1CCOCC1)(c1cccc2ccccc12)C(C)CC (stereo not given)
inactive: dose: 100.0 mg/kg/injection, schedule: Q04DX002 (ip), vehicle: saline 102 % of control | dose: 200.0 mg/kg/injection, schedule: Q04DX002 (ip), vehicle: saline 106 % of control | dose: 400.0 mg/kg/injection, schedule: Q04DX002 (ip), vehicle: saline 97 % of control

O=C(O)C(F)(F)F.[Cu+2]
inactive: dose: 12.5 mg/kg/injection, schedule: Q04DX002 (ip), vehicle: saline 98 % of control | dose: 25.0 mg/kg/injection, schedule: Q04DX002 (ip), vehicle: saline 95 % of control

CN(C)c1ccc(/C=C/C(=O)Cc2ccccc2)cc1
inactive: dose: 1.56 mg/kg/injection, schedule: Q04DX002 (ip), vehicle: saline with Tween-80 109 % of control | dose: 3.13 mg/kg/injection, schedule: Q04DX002 (ip), vehicle: saline with Tween-80 103 % of control | dose: 6.25 mg/kg/injection, schedule: Q04DX002 (ip), vehicle: saline with Tween-80 98 % of control | dose: 12.5 mg/kg/injection, schedule: Q04DX002 (ip), vehicle: saline with Tween-80 95 % of control and 98 % of control | dose: 50.0 mg/kg/injection, schedule: Q04DX002 (ip), vehicle: saline with Tween-80 104 % of control | [1] 88 % of control

Cc1cc(=O)[nH]n1-c1ccc([N+](=O)[O-])cc1
inactive: [18] 94 % of control | [19] 97 % of control | [20] 89 % of control

O=C1C2=C(NC1(c1ccccc1)c1ccccc1)c1ccccc1C2
inactive: dose: 50.0 mg/kg/injection, schedule: Q01DX009 (ip), vehicle: Klucel (hydroxypropylcellulose) (HPC) 101 % of control | [4] 105 % of control | [5] 97 % of control

COc1ccc(OC)c(-n2cccc2)c1
inactive: [1] 87 % of control | [2] 103 % of control | [3] 94 % of control

CCOC(=O)C(C(=O)c1ccccc1)=P(c1ccccc1)(c1ccccc1)c1ccccc1
inactive: [18] 100 % of control | [19] 100 % of control | [20] 102 % of control

COc1ccc(N=Cc2cccc(OC)c2O)cc1.COc1ccc(N=Cc2cccc(OC)c2O)cc1.[Co]
inactive: dose: 50.0 mg/kg/injection, schedule: Q04DX003 (ip), vehicle: saline with Tween-80 92 % of control | [7] 92 % of control | [8] 95 % of control

O=C(c1ccccc1)c1cc(CN(CCCl)CCCl)c(O)cc1O
inactive: [12] 106 % of control | [13] 117 % of control | [14] 122 % of control

N#Cc1cn(C2OC(CO)C(O)C2O)c2ncnc(Cl)c12 (stereo not given)
inactive: [15] 103 % of control | [16] 104 % of control | [17] 103 % of control

COc1cc(OC)c(NC(=O)CCl)cc1Cl
inactive: [4] 104 % of control | [5] 98 % of control

O=C(/C(=C\c1ccc(Cl)c(Cl)c1)c1ccccc1)c1ccc(O)cc1
inactive: [12] 90 % of control | [13] 101 % of control | [14] 95 % of control
